In patent US9765035B2 (priority 2013, dated 2017):
Read-outs that look alike come from different tables or passages of the source.

Target: human PRMT6 (Homo sapiens, UniProt Q96LA8)
Test: biochemical
Source text: General Materials. S-adenosylmethionine (SAM), S-adenosylhomocysteine (SAH), bicine, Tween20, dimethylsulfoxide (DMSO), bovine skin gelatin (BSG), sodium butyrate and Tris(2-carboxyethyl)phosphine hydrochloride solution (TCEP) were purchased from Sigma-Aldrich at the highest level of purity possible. ^3H-SAM was purchase from American Radiolabeled Chemicals with a specific activity of 80 Ci/mmol. 384-well streptavidin Flashplates were purchased from PerkinElmer.
Substrates. Peptide representative of human histone H4 residues 36-50 was synthesized with an N-terminal linker-affinity tag motif and a C-terminal amide cap by 21st Century Biochemicals. The peptide was purified by high-performance liquid chromatography (HPLC) to greater than 95% purity and confirmed by liquid chromatography mass spectrometry (LC-MS). The sequence was Biot-Ahx-[…]-amide and contained a monomethylated lysine at position 44 (SEQ ID NO.:5).
Molecular Biology: Full-length human PRMT6 (NM_018137.2) transcript clone was amplified from an HEK 293 cDNA library, incorporating a flanking 5′ sequence encoding a FLAG tag ([…]) (SEQ ID NO.:6) fused directly to Ser 2 of PRMT6 and a 3′ sequence encoding a hexa His sequence (HHHHHH) (SEQ ID NO.: 17) fused directly to Asp 375. The amplified gene was subcloned into pFastBacMam (Viva Biotech).
Protein Expression. Recombinant baculovirus were generated according to Bac-to-Bac kit instructions (Life Technologies). […] Infections were carried out at 37° C. for 48 hours, harvested by centrifugation, and stored at −80° C. for purification.
Protein Purification. […] Column was washed with 20 mM imidazole in the same buffer and Flag-PRMT6-His was eluted with 150 mM imidazole. Pooled fractions were dialysed against buffer Ni-A and further purified by anti-flag M2 affinity chromatography. Flag-PRMT6-His was eluted with 200 ug/ml FLAG peptide in the same buffer. Pooled fractions were dialysed in 20 mM Tris, 150 mM NaCl, 10% glycerol and 5 mM β-mercaptoethanol, pH 7.8. The purity of recovered protein was 95%.
General Procedure for PRMT6 Enzyme Assays on Peptide Substrates. The assays were all performed in a buffer consisting of 20 mM Bicine (pH=7.6), 1 mM TCEP, 0.005% BSG, and 0.002% Tween 20, prepared on the day of use. Compounds in 100% DMSO (1 ul) were spotted into a polypropylene 384-well V-bottom plates (Greiner) using a Platemate Plus outfitted with a 384-channel head (Thermo Scientific). DMSO (1 ul) was added to Columns 11, 12, 23, 24, rows A-H for the maximum signal control and 1 ul of SAH, a known product and inhibitor of PRMT6, was added to columns 11, 12, 23, 24, rows I-P for the minimum signal control. A cocktail (40 ul) containing the PRMT6 enzyme was added by Multidrop Combi (Thermo-Fisher). The compounds were allowed to incubate with PRMT6 for 30 min at room temperature, then a cocktail (10 ul) containing SAM and peptide was added to initiate the reaction (final volume=51 ul). The final concentrations of the components were as follows: PRMT6 was 1 nM, ^3H-SAM was 200 nM, non-radiolabeled SAM was 250 nM, peptide was 75 nM, SAH in the minimum signal control wells was 1 mM, and the DMSO concentration was 2%. The assays were stopped by the addition of non-radiolabeled SAM (10 ul) to a final concentration of 400 uM, which dilutes the ^3H-SAM to a level where its incorporation into the peptide substrate is no longer detectable. 50 ul of the reaction in the 384-well polypropylene plate was then transferred to a 384-well Flashplate and the biotinylated peptides were allowed to bind to the streptavidin surface for at least 1 hour before being washed once with 0.1% Tween20 in a Biotek EL×405 plate washer. The plates were then read in a PerkinElmer TopCount plate reader to measure the quantity of ^3H-labeled peptide bound to the Flashplate surface, measured as disintegrations per minute (dpm) or alternatively, referred to as counts per minute (cpm). […]

[1] = biochemical evaluation, peptide substrate, read-out: PRMT6 IC50
[2] = single experiment or average of multiple experiments, read-out: PRMT6 biochemical evaluation (numerical)

human PRMT6, sequence (Q96LA8 with tags, fused parts or gaps): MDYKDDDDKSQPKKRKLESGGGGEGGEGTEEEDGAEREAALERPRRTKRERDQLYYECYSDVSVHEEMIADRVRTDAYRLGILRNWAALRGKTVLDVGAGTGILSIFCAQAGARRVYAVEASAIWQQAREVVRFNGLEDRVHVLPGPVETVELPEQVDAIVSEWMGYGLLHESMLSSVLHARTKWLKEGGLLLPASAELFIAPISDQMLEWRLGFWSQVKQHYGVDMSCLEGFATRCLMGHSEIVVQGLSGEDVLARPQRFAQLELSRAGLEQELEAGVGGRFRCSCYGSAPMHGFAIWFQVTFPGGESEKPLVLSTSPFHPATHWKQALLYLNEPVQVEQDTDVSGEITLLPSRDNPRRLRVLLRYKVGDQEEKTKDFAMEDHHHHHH

Row | IC50 [1] [nM] | IC50 [2] [nM] | SMILES | IC50 [nM] | IC50 (PRMT6 biochemical evaluation (numerical), single experiment or average of multiple experiments) [nM]
1 | 3010 to 10000 | 51.9 | CNCCN(C)Cc1n[nH]c2ccc(Oc3ccccc3C(F)(F)F)cc12 [Compound 49] | – | –
2 | 3010 to 10000 | 45 | CNCCN(C)Cc1n[nH]c2ccc(OCC3CCOCC3)cc12 [Compound 50] | – | –
3 | 1010 to 3000 | > 10000 | CNCCN(C)Cc1n[nH]c2ccc(OCC3CCN(C(C)=O)CC3)cc12 [Compound 51] | – | –
4 | 1010 to 3000 | 6020 | CNCCN(C)Cc1n[nH]c2ccc(OCC3CCCC3)cc12 [Compound 52] | – | –
5 | 1010 to 3000 | 2550 | CNCCN(C)Cc1c2cc(OCc3ccc(C#N)cc3)ccc2nn1C1CCOCC1 [Compound 53] | – | –
6 | 101 to 1000 | 2330 | CNCCN(C)Cc1n[nH]c2ccc(OCC3CCCCC3)cc12 [Compound 54] | – | –
7 | 101 to 1000 | 1020 | CNCCN(C)Cc1n[nH]c2ccc(Oc3ccc(C)cc3)cc12 [Compound 55] | – | –
8 | 101 to 1000 | 774 | CNCCN(C)Cc1n[nH]c2ccc(Oc3ccccc3OC(C)C)cc12 [Compound 56] | – | –
9 | 101 to 1000 | 479 | CNCCN(C)Cc1n[nH]c2ccc(Oc3ccc(Cl)cc3)cc12 [Compound 57] | – | –
10 | 101 to 1000 | 447 | CNCCN(C)Cc1n[nH]c2ccc(OC3CCN(C(C)=O)CC3)cc12 [Compound 58, 1-(4-((3-((methyl(2-(methylamino)ethyl)amino)methyl)-1H-indazol-5-yl)oxy)piperidin-1-yl)ethan-1-one] | – | –
11 | – | – | CNCCN(C)Cc1n[nH]c2ccc(Oc3ccc(OC)cc3)cc12 [Compound 59] | 101 to 1000 | 306
12 | 101 to 1000 | 243 | CNCCN(C)Cc1n[nH]c2ccc(Oc3ccccc3C)cc12 [Compound 60] | – | –
13 | 101 to 1000 | 236 | CNCCN(C)Cc1n[nH]c2ccc(Oc3ccc(OC(C)C)cc3)cc12 [Compound 61] | – | –
14 | 101 to 1000 | 191 | CNCCN(C)Cc1nn(C(C)C)c2ccc(OCc3ccc(C#N)cc3)cc12 [Compound 62] | – | –
15 | < 100 | 56.4 | CNCCN(C)Cc1n[nH]c2ccc(OCc3cccc(C(N)=O)c3)cc12 [Compound 66] | – | –
16 | < 100 | 56.2 | CNCCN(C)Cc1n[nH]c2ccc(Oc3cccc(OC(C)C)c3)cc12 [Compound 67] | – | –
17 | < 100 | 39.7 | CNCCN(C)Cc1n[nH]c2ccc(OCc3ccc(C(F)(F)F)cc3)cc12 [Compound 68] | – | –
18 | < 100 | 34.2 | CNCCN(C)Cc1n[nH]c2ccc(OCc3ccc(C(N)=O)cc3)cc12 [Compound 69] | – | –
19 | < 100 | 15.1 | CNCCN(C)Cc1n[nH]c2ccc(OCc3cccc(NC(C)=O)c3)cc12 [Compound 70] | – | –
20 | < 100 | 13.1 | CNCCN(C)Cc1n[nH]c2ccc(OCc3ccc(C(C)(C)C)cc3)cc12 [Compound 71] | – | –
21 | < 100 | 12.7 | CNCCN(C)Cc1n[nH]c2ccc(OCc3cccc(C(F)(F)F)c3)cc12 [Compound 72] | – | –
22 | < 100 | 9.49 | CNCCN(C)Cc1n[nH]c2ccc(OCc3cccc(C(C)=O)c3)cc12 [Compound 73] | – | –
23 | < 100 | 9.09 | CNCCN(C)Cc1n[nH]c2ccc(OCc3cccc(C(C)(C)C)c3)cc12 [Compound 74] | – | –

Row | SMILES | IC50 [1] [nM] | IC50 [2] [nM] | IC50 [nM] | IC50 (PRMT6 biochemical evaluation (numerical), single experiment or average of multiple experiments) [nM]
24 | CNCCN(C)Cc1n[nH]c2ccc(C3=CCCCC3)cc12 [Compound 48] | < 100 | 65.6 | – | –
25 | CCOc1ccc2[nH]nc(CN(C)CCNC)c2c1 [Compound 63] | 101 to 1000 | 164 | – | –
26 | CNCCN(C)Cc1n[nH]c2ccc(OC(C)C)cc12 [Compound 64] | < 100 | 107 | – | –
27 | CCCOc1ccc2[nH]nc(CN(C)CCNC)c2c1 [Compound 65] | < 100 | 105 | – | –
